Reference: ChEMBL document CHEMBL3046675, “Synthesis and Octopaminergic-Agonist Activity of 2-(Arylimino)oxazolidines and 2-(Substituted Benzylamino)-2-oxazolines” (J Pestic Sci, 1996)

T1: Octopamine receptor (Periplaneta americana) (UniProt Q7YWB7)
T1 sequence (whole entry): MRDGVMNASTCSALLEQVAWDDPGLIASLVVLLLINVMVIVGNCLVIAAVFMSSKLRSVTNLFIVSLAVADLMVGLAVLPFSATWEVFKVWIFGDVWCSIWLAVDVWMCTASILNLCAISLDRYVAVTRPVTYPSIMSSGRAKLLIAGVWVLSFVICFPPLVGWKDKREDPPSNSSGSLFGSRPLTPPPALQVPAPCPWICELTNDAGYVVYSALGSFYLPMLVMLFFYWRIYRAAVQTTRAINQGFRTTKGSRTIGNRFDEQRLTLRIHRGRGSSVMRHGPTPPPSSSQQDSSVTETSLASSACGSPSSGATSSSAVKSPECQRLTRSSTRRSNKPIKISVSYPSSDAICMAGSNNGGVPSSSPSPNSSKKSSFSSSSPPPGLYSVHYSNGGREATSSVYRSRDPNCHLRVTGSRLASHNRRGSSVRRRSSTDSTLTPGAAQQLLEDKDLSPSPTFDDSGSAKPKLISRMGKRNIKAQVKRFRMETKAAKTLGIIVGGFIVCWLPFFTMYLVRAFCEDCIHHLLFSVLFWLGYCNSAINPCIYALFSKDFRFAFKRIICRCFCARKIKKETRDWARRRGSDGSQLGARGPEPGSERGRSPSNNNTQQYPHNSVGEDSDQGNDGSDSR

B1: Octopamine receptor (Periplaneta americana), Q7YWB7 (protein)
chain: T1 sequence (whole entry)

Legend:
[1] = target: T1, Octopamine receptor (Periplaneta americana); assay: Agonist activity at Periplaneta americana (American cockroach) thoracic nerve cord octopaminergic receptor assessed as induction of adenylate cyclase-mediated cAMP production per mg protein at 10 uM by radioimmunoassay relative to octopamine
[2] = target: T1, Octopamine receptor (Periplaneta americana); assay: Agonist activity at Periplaneta americana (American cockroach) thoracic nerve cord octopaminergic receptor assessed as induction of adenylate cyclase-mediated cAMP production per mg protein at 10 uM by radioimmunoassay
[3] = target: T1, Octopamine receptor (Periplaneta americana); assay: Agonist activity at Periplaneta americana (American cockroach) thoracic nerve cord octopaminergic receptor assessed as induction of adenylate cyclase-mediated cAMP production per mg protein by radioimmunoassay
[4] = target: T1, Octopamine receptor (Periplaneta americana); assay: Agonist activity at Periplaneta americana (American cockroach) thoracic nerve cord octopaminergic receptor assessed as induction of adenylate cyclase-mediated cAMP production per mg protein at 100 uM by radioimmunoassay
[5] = target: T1, Octopamine receptor (Periplaneta americana); assay: Agonist activity at Periplaneta americana (American cockroach) thoracic nerve cord octopaminergic receptor assessed as induction of adenylate cyclase-mediated cAMP production per mg protein at 100 uM by radioimmunoassay relative to octopamine
[6] = substrate: Clc1ccc(CNC2=NCCS2)cc1Cl; assay: (§1) Agonist activity at Periplaneta americana (American cockroach) thoracic nerve cord octopaminergic receptor assessed as induction of adenylate cyclase-mediated cAMP production per mg protein by radioimmunoassay relative to octopamine
[7] = substrate: Clc1ccc(CNC2=NCCO2)cc1Cl; assay: as §1
[8] = substrate: CCc1cccc(CC)c1/N=C1/NCCO1; assay: as §1

Row | Molecule | Activity [4] [pmol/min] | max activation [5] [%] | further results
1 | Clc1cccc(CNC2=NCCO2)c1 | – | – | Activity [1]: 27.2%; Activity [2]: 252 pmol/min; Ka [3]: 0.16 µM
2 | FC(F)(F)c1cccc(CNC2=NCCO2)c1 | 200 | 17.2 | –
3 | COc1cccc(CNC2=NCCO2)c1OC | 157 | 8.9 | –
4 | Clc1ccc(CNC2=NCCO2)cc1Cl | 180 | 13.5 | Ka [3]: 2.3 µM
5 | Fc1cc(F)c(/N=C2/NCCO2)c(F)c1 | 123 | 2.5 | –
6 | Fc1cccc(F)c1/N=C1/NCCO1 | 109 | -0.3 | –
7 | Brc1cc(Br)c(/N=C2/NCCO2)c(Br)c1 | 87.4 | -4.4 | –
8 | Clc1cc(Br)ccc1/N=C1/NCCO1 | 66.4 | -8.4 | –
9 | CCc1ccc(/N=C2/NCCO2)cc1 | 170 | 11.5 | Ka [3]: 36 µM
10 | Clc1ccc(CNC2=NCCO2)cc1 | 275 | 31.7 | –
11 | FC(F)(F)c1ccc(CNC2=NCCO2)cc1 | 147 | 7 | –
12 | COc1ccc(CNC2=NCCO2)c(OC)c1 | 161 | 9.8 | –
13 | Clc1cccc(/N=C2/NCCO2)c1Cl | 121 | 2 | –
14 | Clc1ccc(/N=C2/NCCO2)c(Cl)c1Cl | 189 | 15.1 | –
15 | Cc1cc(Cl)ccc1/N=C1/NCCO1 | 204 | 17.9 | Ka [3]: 0.18 µM
16 | Clc1ccccc1CNC1=NCCO1 | 200 | 17.4 | –
17 | CCc1ccccc1/N=C1/NCCO1 | 84.1 | -5 | –
18 | O=[N+]([O-])c1cccc(CNC2=NCCO2)c1 | 206 | 18.4 | –
19 | COc1ccc(CNC2=NCCO2)cc1 | 199 | 17 | –
20 | FC(F)(F)c1ccc(/N=C2/NCCO2)cc1 | 145 | 6.6 | –

Row | Molecule | Activity [4] [pmol/min] | max activation [5] [%] | further results
21 | Fc1ccc(F)c(CNC2=NCCO2)c1 | 211 | 19.3 | –
22 | Cc1cc(Br)ccc1/N=C1/NCCO1 | 214 | 19.9 | Ka [3]: 0.19 µM
23 | FC(F)(F)c1ccc(C(F)(F)F)c(/N=C2/NCCO2)c1 | 88.3 | -4.2 | –
24 | Fc1ccc(CNC2=NCCO2)cc1 | 168 | 11.2 | –
25 | COc1ccccc1CNC1=NCCO1 | 146 | 6.9 | –
26 | Clc1ccc(CNC2=NCCS2)cc1Cl | – | – | Ka [3]: 0.4 µM
27 | CCc1cccc(CC)c1NC1=NCCN1 | – | – | Ka [3]: 0.44 µM
28 | Fc1ccccc1CNC1=NCCO1 | 184 | 14.2 | –
29 | Cc1ccc(CNC2=NCCO2)cc1 | 293 | 35.2 | –
30 | Clc1cccc(/N=C2/NCCO2)c1 | 111 | 0.2 | –
31 | Clc1ccc(CNC2=NCCO2)c(Cl)c1 | 172 | 11.8 | –
32 | FC(F)(F)c1ccccc1CNC1=NCCO1 | 137 | 5.1 | –
33 | Cc1cccc(CNC2=NCCO2)c1 | 158 | 9.2 | –
34 | COc1cccc(CNC2=NCCO2)c1 | 91.5 | -3.6 | –
35 | NCC(O)c1ccc(O)cc1 (stereo not given) | 630 | – | Ka [3]: 7.6 µM
36 | Fc1ccc(F)c(/N=C2/NCCO2)c1 | 70.3 | -7.7 | –
37 | CCc1cccc(CC)c1/N=C1/NCCO1 | 365 | 49 | Ka [3]: 0.44 µM
38 | COc1cc(/N=C2/NCCO2)cc(OC)c1OC | 61.2 | -9.4 | –
39 | Brc1ccccc1CNC1=NCCO1 | 164 | 10.4 | –
40 | B1 | – | – | Vmax [6]: 53%; Vmax [7]: 29%; Vmax [8]: 58%
